Test results reported in patent US6706663B2, “Herbicidal 3-heterocyclic substituted benzisothiazole and benzisoxazole compounds” (Wyeth, priority 2000, dated 2004).

Experiments:
[1] = tested on: ABUTH (Abutilon theophrasti); experiment: Postemergence herbicidal evaluation; assay type: in vivo, Medic.; conditions: for ABUTH herbicidal rating: postemergence
Outline: (§1)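 Visual 0–9 injury scores versus control plants, covering stand, vigour, malformation, size, chlorosis and general appearance, taken four to five weeks post-spray and averaged over replicate tests. Plants were sprayed at roughly two weeks old and held on greenhouse benches.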

[2] = tested on: AMBEL (Ambrosia artemisifolia); experiment: Postemergence herbicidal evaluation; assay type: in vivo, L.; conditions: for AMBEL herbicidal rating: postemergence
Outline: as §1

[3] = tested on: CASOB (Cassia obtusifolia); experiment: Postemergence herbicidal evaluation; assay type: in vivo, L.; conditions: for CASOB herbicidal rating: postemergence
Outline: as §1

[4] = tested on: CHEAL (Chenopodium album); experiment: Postemergence herbicidal evaluation; assay type: in vivo, L.; conditions: for CHEAL herbicidal rating: postemergence
Outline: as §1

[5] = tested on: IPOHE (Ipomoea hederacea); experiment: Postemergence herbicidal evaluation; assay type: in vivo, (L.) Jacq.; conditions: for IPOHE herbicidal rating: postemergence
Outline: as §1

[6] = tested on: GLXMAW (Soybean, Williams); experiment: Postemergence herbicidal evaluation; assay type: in vivo, Glycine max, (L.) Merr. cv Williams; conditions: for GLXMAW herbicidal rating: postemergence
Outline: as §1

ORYSAT (Rice, Tebonnet) [7] = experiment: Postemergence herbicidal evaluation; assay type: in vivo, Oryza sativa, (L.) Tebonnet; conditions: for ORYSAT herbicidal rating: postemergence
Outline: as §1

[8] = tested on: ABUTH (Abutilon theophrasti); experiment: Preemergence herbicidal evaluation; assay type: in vivo, Medic.; conditions: rated 4-5 weeks after treatment
[9] = tested on: AMBEL (Ambrosia artemisifolia); experiment: Preemergence herbicidal evaluation; assay type: in vivo, L.; conditions: rated 4-5 weeks after treatment
Outline: (§2)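 Visual 0-9 rating versus untreated control, taken four to five weeks post-treatment, scoring stand, vigor, malformation, size, chlorosis and overall appearance. Compound applied as aqueous acetone spray to freshly seeded soil cups, then kept under standard greenhouse care.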

[10] = tested on: CASOB (Cassia obtusifolia); experiment: Preemergence herbicidal evaluation; assay type: in vivo, L.; conditions: rated 4-5 weeks after treatment
Outline: as §2

[11] = tested on: CHEAL (Chenopodium album); experiment: Preemergence herbicidal evaluation; assay type: in vivo, L.; conditions: rated 4-5 weeks after treatment
Outline: as §2

[12] = tested on: IPOHE (Ipomoea hederacea); experiment: Preemergence herbicidal evaluation; assay type: in vivo, (L.) Jacq.; conditions: rated 4-5 weeks after treatment
[13] = tested on: ECHCG (Echinochloa crus-galli); experiment: Preemergence herbicidal evaluation; assay type: in vivo, (L.) Beau; conditions: rated 4-5 weeks after treatment
Outline: as §2

SETVI (Setaria viridis) = experiment: Preemergence herbicidal evaluation; assay type: in vivo, (L.) Beau; conditions: rated 4-5 weeks after treatment
Outline: as §2

[14] = tested on: GLXMAW (Soybean, Williams); experiment: Preemergence herbicidal evaluation; assay type: in vivo, Glycine max, (L.) Merr. cv Williams; conditions: rated 4-5 weeks after treatment
[15] = tested on: TRZAWR (Wheat, Winter, cv Riband); experiment: Preemergence herbicidal evaluation; assay type: in vivo, Triticum aestivum; conditions: rated 4-5 weeks after treatment
Outline: as §2

ZEAMX (Corn, Field) = experiment: Preemergence herbicidal evaluation; assay type: in vivo, Zea mays, L.; conditions: rated 4-5 weeks after treatment
CYPIR (Cyperus iria) = experiment: Flooded paddy, preemergence weed control; assay type: in vivo; conditions: rated 3-4 weeks after treatment, 0-9 rating scale
Outline: (§3)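 Under paddy conditions, seeds or vegetative propagules go into the top 0.5 cm of silt loam; the soil is then flooded to 1.5–3 cm and kept so. Treated pots stay in a greenhouse; response is rated 0-9 visually versus control.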

[16] = tested on: MOOVA (Monochoria vaginalis); experiment: Flooded paddy, preemergence weed control; assay type: in vivo, Presl.; conditions: rated 3-4 weeks after treatment, 0-9 rating scale
Outline: as §3

ORYSAT (Rice, Tebonnet) [17] = experiment: Flooded paddy, post-transplant rice tolerance; assay type: in vivo, Oryza sativa, (L.) Tebonnet; conditions: flooded paddy, post-transplant rice, rated 3-4 weeks after treatment, 0-9 rating scale
Outline: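 Seedlings aged ten days are transplanted in pairs into undrained pots of silt loam, which are then flooded to a depth of 1.5 to 3 cm. After herbicide application the pots are kept in a greenhouse with the flood maintained. Plants are rated 0-9 by visual comparison with controls.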

COC(=O)COc1ccsc1-c1nsc2ccc(-n3c(=O)cc(C(F)(F)F)n(C)c3=O)cc12 [Compound 22, Methyl [(2-[5-[3,6-dihydro-3-methyl-2,6-dioxo-4-(trifluoromethyl)-1(2H)-pyrimidinyl]-1,2-benzisothiazol-3-yl]-3-thienyl]oxy]acetate]
Postemergence herbicidal rating, ABUTH ([1]; rate 0.0320 kg/ha): 5.0
Postemergence herbicidal rating, ABUTH ([1]; rate 0.0620 kg/ha): 4.0
Postemergence herbicidal rating, ABUTH ([1]; rate 0.1250 kg/ha): 6.0
Postemergence herbicidal rating, AMBEL ([2]; rate 0.0320 kg/ha): 2.0
Postemergence herbicidal rating, AMBEL ([2]; rate 0.0620 kg/ha): 4.0
Postemergence herbicidal rating, AMBEL ([2]; rate 0.1250 kg/ha): 6.0
Postemergence herbicidal rating, CASOB ([3]; rate 0.0320 kg/ha): 0.0
Postemergence herbicidal rating, CASOB ([3]; rate 0.0620 kg/ha): 0.0
Postemergence herbicidal rating, CASOB ([3]; rate 0.1250 kg/ha): 1.0
Postemergence herbicidal rating, CHEAL ([4]; rate 0.0320 kg/ha): 1.0
Postemergence herbicidal rating, CHEAL ([4]; rate 0.0620 kg/ha): 4.0
Postemergence herbicidal rating, CHEAL ([4]; rate 0.1250 kg/ha): 4.0
Postemergence herbicidal rating, IPOHE ([5]; rate 0.0320 kg/ha): 4.0
Postemergence herbicidal rating, IPOHE ([5]; rate 0.0620 kg/ha): 4.0
Postemergence herbicidal rating, IPOHE ([5]; rate 0.1250 kg/ha): 6.0
Postemergence herbicidal rating, GLXMAW ([6]; rate 0.0320 kg/ha): 5.5
Postemergence herbicidal rating, GLXMAW ([6]; rate 0.0620 kg/ha): 5.5
Postemergence herbicidal rating, GLXMAW ([6]; rate 0.1250 kg/ha): 6.5
Postemergence herbicidal rating, ORYSAT (ORYSAT (Rice, Tebonnet) [7]; rate 0.0320 kg/ha): 3.0
Postemergence herbicidal rating, ORYSAT (ORYSAT (Rice, Tebonnet) [7]; rate 0.0620 kg/ha): 3.5
Postemergence herbicidal rating, ORYSAT (ORYSAT (Rice, Tebonnet) [7]; rate 0.1250 kg/ha): 4.5
ABUTH preemergence herbicidal rating ([8]; Rate 0.0620 kg/ha): 1.0
ABUTH preemergence herbicidal rating ([8]; Rate 0.1250 kg/ha): 4.0
ABUTH preemergence herbicidal rating ([8]; Rate 0.2500 kg/ha): 5.0
AMBEL preemergence herbicidal rating ([9]; Rate 0.0620 kg/ha): 0.0
AMBEL preemergence herbicidal rating ([9]; Rate 0.1250 kg/ha): 0.0
AMBEL preemergence herbicidal rating ([9]; Rate 0.2500 kg/ha): 2.0
CASOB preemergence herbicidal rating ([10]; Rate 0.0620 kg/ha): 0.0
CASOB preemergence herbicidal rating ([10]; Rate 0.1250 kg/ha): 0.0
CASOB preemergence herbicidal rating ([10]; Rate 0.2500 kg/ha): 1.0
CHEAL preemergence herbicidal rating ([11]; Rate 0.0620 kg/ha): 0.0
CHEAL preemergence herbicidal rating ([11]; Rate 0.1250 kg/ha): 3.0
CHEAL preemergence herbicidal rating ([11]; Rate 0.2500 kg/ha): 9.0
IPOHE preemergence herbicidal rating ([12]; Rate 0.0620 kg/ha): 0.0
IPOHE preemergence herbicidal rating ([12]; Rate 0.1250 kg/ha): 0.0
IPOHE preemergence herbicidal rating ([12]; Rate 0.2500 kg/ha): 0.0
ECHCG preemergence herbicidal rating ([13]; Rate 0.0620 kg/ha): 0.0
ECHCG preemergence herbicidal rating ([13]; Rate 0.1250 kg/ha): 0.0
ECHCG preemergence herbicidal rating ([13]; Rate 0.2500 kg/ha): 1.0
SETVI preemergence herbicidal rating (SETVI (Setaria viridis); Rate 0.0620 kg/ha): 0.0
SETVI preemergence herbicidal rating (SETVI (Setaria viridis); Rate 0.1250 kg/ha): 1.0
SETVI preemergence herbicidal rating (SETVI (Setaria viridis); Rate 0.2500 kg/ha): 3.0
GLXMAW preemergence herbicidal rating ([14]; Rate 0.0620 kg/ha): 0.0
GLXMAW preemergence herbicidal rating ([14]; Rate 0.1250 kg/ha): 0.0
GLXMAW preemergence herbicidal rating ([14]; Rate 0.2500 kg/ha): 0.0
TRZAWR preemergence herbicidal rating ([15]; Rate 0.0620 kg/ha): 0.0
TRZAWR preemergence herbicidal rating ([15]; Rate 0.1250 kg/ha): 0.0
TRZAWR preemergence herbicidal rating ([15]; Rate 0.2500 kg/ha): 0.0
ZEAMX preemergence herbicidal rating (ZEAMX (Corn, Field); Rate 0.0620 kg/ha): 0.0
ZEAMX preemergence herbicidal rating (ZEAMX (Corn, Field); Rate 0.1250 kg/ha): 0.0
ZEAMX preemergence herbicidal rating (ZEAMX (Corn, Field); Rate 0.2500 kg/ha): 1.0
herbicidal rating, CYPIR (CYPIR (Cyperus iria); rate 0.0080 kg/ha): 0.0
herbicidal rating, CYPIR (CYPIR (Cyperus iria); rate 0.0320 kg/ha): 2.5
herbicidal rating, CYPIR (CYPIR (Cyperus iria); rate 0.1250 kg/ha): 3.0
herbicidal rating, MOOVA ([16]; rate 0.0080 kg/ha): 0.0
herbicidal rating, MOOVA ([16]; rate 0.0320 kg/ha): 4.5
herbicidal rating, MOOVA ([16]; rate 0.1250 kg/ha): 4.5
herbicidal rating, ORYSAT (rice tolerance) (ORYSAT (Rice, Tebonnet) [17]; rate 0.0080 kg/ha): 0.0
herbicidal rating, ORYSAT (rice tolerance) (ORYSAT (Rice, Tebonnet) [17]; rate 0.0320 kg/ha): 2.0
herbicidal rating, ORYSAT (rice tolerance) (ORYSAT (Rice, Tebonnet) [17]; rate 0.1250 kg/ha): 2.5

C=C1COC(c2nsc3ccc(-n4c(=O)cc(C(F)(F)F)n(C)c4=O)cc23)OC1 [Compound 58, 2,4(1H,3H)-pyrimidinedione, 1-methyl-3-[3-(5-methylene-m-dioxan-2-yl)-1,2-benzisothiazol-5-yl]-6-(trifluoromethyl)-]
ABUTH herbicidal rating ([1]; rate 0.0320 kg/ha): 9.0
ABUTH herbicidal rating ([1]; rate 0.0620 kg/ha): 9.0
AMBEL herbicidal rating ([2]; rate 0.0320 kg/ha): 9.0
AMBEL herbicidal rating ([2]; rate 0.0620 kg/ha): 9.0
CASOB herbicidal rating ([3]; rate 0.0320 kg/ha): 1.0
CASOB herbicidal rating ([3]; rate 0.0620 kg/ha): 8.0
CHEAL herbicidal rating ([4]; rate 0.0320 kg/ha): 3.0
CHEAL herbicidal rating ([4]; rate 0.0620 kg/ha): 5.0
IPOHE herbicidal rating ([5]; rate 0.0320 kg/ha): 9.0
IPOHE herbicidal rating ([5]; rate 0.0620 kg/ha): 9.0
GLXMAW herbicidal rating ([6]; rate 0.0320 kg/ha): 7.0
GLXMAW herbicidal rating ([6]; rate 0.0620 kg/ha): 7.5
ORYSAT herbicidal rating (ORYSAT (Rice, Tebonnet) [7]; rate 0.0320 kg/ha): 3.5
ORYSAT herbicidal rating (ORYSAT (Rice, Tebonnet) [7]; rate 0.0620 kg/ha): 5.0
Preemergence herbicidal rating ABUTH ([8]; Rate 0.0620 kg/ha): 9.0
Preemergence herbicidal rating ABUTH ([8]; Rate 0.1250 kg/ha): 9.0
Preemergence herbicidal rating ABUTH ([8]; Rate 0.2500 kg/ha): 9.0
Preemergence herbicidal rating AMBEL ([9]; Rate 0.0620 kg/ha): 9.0
Preemergence herbicidal rating AMBEL ([9]; Rate 0.1250 kg/ha): 9.0
Preemergence herbicidal rating AMBEL ([9]; Rate 0.2500 kg/ha): 9.0
Preemergence herbicidal rating CASOB ([10]; Rate 0.0620 kg/ha): 5.5
Preemergence herbicidal rating CASOB ([10]; Rate 0.1250 kg/ha): 6.5
Preemergence herbicidal rating CASOB ([10]; Rate 0.2500 kg/ha): 9.0
Preemergence herbicidal rating CHEAL ([11]; Rate 0.0620 kg/ha): 9.0
Preemergence herbicidal rating CHEAL ([11]; Rate 0.1250 kg/ha): 9.0
Preemergence herbicidal rating CHEAL ([11]; Rate 0.2500 kg/ha): 9.0
Preemergence herbicidal rating IPOHE ([12]; Rate 0.0620 kg/ha): 6.5
Preemergence herbicidal rating IPOHE ([12]; Rate 0.1250 kg/ha): 7.5
Preemergence herbicidal rating IPOHE ([12]; Rate 0.2500 kg/ha): 9.0
Preemergence herbicidal rating ECHCG ([13]; Rate 0.0620 kg/ha): 9.0
Preemergence herbicidal rating ECHCG ([13]; Rate 0.1250 kg/ha): 9.0
Preemergence herbicidal rating ECHCG ([13]; Rate 0.2500 kg/ha): 9.0
Preemergence herbicidal rating SETVI (SETVI (Setaria viridis); Rate 0.0620 kg/ha): 8.0
Preemergence herbicidal rating SETVI (SETVI (Setaria viridis); Rate 0.1250 kg/ha): 9.0
Preemergence herbicidal rating SETVI (SETVI (Setaria viridis); Rate 0.2500 kg/ha): 9.0
Preemergence herbicidal rating GLXMAW ([14]; Rate 0.0620 kg/ha): 9.0
Preemergence herbicidal rating GLXMAW ([14]; Rate 0.1250 kg/ha): 8.0
Preemergence herbicidal rating GLXMAW ([14]; Rate 0.2500 kg/ha): 9.0
Preemergence herbicidal rating TRZAWR ([15]; Rate 0.0620 kg/ha): 7.0
Preemergence herbicidal rating TRZAWR ([15]; Rate 0.1250 kg/ha): 8.0
Preemergence herbicidal rating TRZAWR ([15]; Rate 0.2500 kg/ha): 8.0
Preemergence herbicidal rating ZEAMX (ZEAMX (Corn, Field); Rate 0.0620 kg/ha): 8.0
Preemergence herbicidal rating ZEAMX (ZEAMX (Corn, Field); Rate 0.1250 kg/ha): 9.0
Preemergence herbicidal rating ZEAMX (ZEAMX (Corn, Field); Rate 0.2500 kg/ha): 9.0
herbicidal rating, CYPIR (CYPIR (Cyperus iria); rate 0.0320 kg/ha): 6.0
herbicidal rating, CYPIR (CYPIR (Cyperus iria); rate 0.1250 kg/ha): 9.0
herbicidal rating, MOOVA ([16]; rate 0.0320 kg/ha): 9.0
herbicidal rating, MOOVA ([16]; rate 0.1250 kg/ha): 9.0
herbicidal rating, ORYSAT (rice tolerance) (ORYSAT (Rice, Tebonnet) [17]; rate 0.0320 kg/ha): 4.0
herbicidal rating, ORYSAT (rice tolerance) (ORYSAT (Rice, Tebonnet) [17]; rate 0.1250 kg/ha): 7.0
